Test results: ChEMBL document CHEMBL1132832, “Programmed cell death (PCD) associated with the stilbene motif of arotinoids: discovery of novel apoptosis inducer agents possessing activity on multidrug resistant tumor cells” (Bioorg Med Chem Lett, 2000)

What was measured:
Assay type in all cases: functional, cell-based
HL-60 [1] = assay: In vitro apoptotic activity against HL60 cells after 48 hr of treatment.; conditions: Homo sapiens, HL-60, 48 h
HL-60 [2] = assay: In vitro cytotoxicity against HL60 cells.; conditions: Homo sapiens
HuT78 [3] = assay: The compound evaluated for apoptotic activity against multi drug resistant HUT 78 cells (the results were obtained after 48 hr treatment); conditions: Homo sapiens, HuT78, 48 h
HL-60 [4] = assay: The compound evaluated for apoptotic activity against multi drug resistant HL60 R cells (the results were obtained after 48 hr treatment); conditions: Homo sapiens, HL-60, 48 h
HL-60 [5] = assay: The compound evaluated for Cytotoxic activity against multi drug resistant HL60R cells (the results were obtained after 48 hr treatment); conditions: Homo sapiens, HL-60, 48 h
HuT78 [6] = assay: The compound evaluated for Cytotoxic activity against multi drug resistant HUT 78 cells (the results were obtained after 48 hr treatment); conditions: Homo sapiens, HuT78, 48 h
K562 [7] = assay: The compound evaluated for apoptotic activity against K562 cells (the results were obtained after 48 hr treatment); conditions: Homo sapiens, K562, 48 h
K562 [8] = assay: The compound evaluated for Cytotoxic activity against multi drug resistant K562 cells (the results were obtained after 48 hr treatment); conditions: Homo sapiens, K562, 48 h
HuT78 [9] = assay: The compound evaluated for apoptotic activity against HUT 78 cells (the results were obtained after 48 hr treatment); conditions: Homo sapiens, HuT78, 48 h

Row | SMILES | AC50 (HL-60 [1]) | IC50 (HL-60 [2]) | other results
1 | C/C(=C\c1ccc(C(=O)O)cc1)c1ccc2c(c1)C(C)(C)CCC2(C)C | > 100 µM | 46 µM | –
2 | COc1ccc(/C=C(/C)c2ccc3c(c2)C(C)(C)CCC3(C)C)cc1N | 90 µM | 42 µM | –
3 | COc1ccc(/C=C(\C)c2ccc3c(c2)C(C)(C)CCC3(C)C)cc1N | 40 µM | 20 µM | –
4 | C/C(=C/c1ccc(C(=O)O)cc1)c1ccc2c(c1)C(C)(C)CCC2(C)C | 40 µM | 10 µM | –
5 | C/C(=C\c1cccc(C(=O)O)c1)c1ccc2c(c1)C(C)(C)CCC2(C)C | > 100 µM | > 100 µM | –
6 | COc1ccc(/C=C/c2ccc3c(c2)C(C)(C)CCC3(C)C)cc1 | > 100 µM | 50 µM | –
7 | COc1ccc(/C=C\c2ccc3c(c2)C(C)(C)CCC3(C)C)cc1 | > 100 µM | 50 µM | –
8 | COc1ccc(/C=C/c2ccc3c(c2)C(C)(C)CCC3(C)C)cc1N | 85 µM | 61 µM | –
9 | C/C(=C/c1cccc(C(=O)O)c1)c1ccc2c(c1)C(C)(C)CCC2(C)C | 80 µM | 50 µM | –
10 | CC1(C)CCC(C)(C)c2cc(/C=C\c3ccc(N)cc3)ccc21 | 38 µM | 18 µM | AC50 (HuT78 [3]): > 100 µM; AC50 (HL-60 [4]): > 100 µM; IC50 (HL-60 [5]): 25 µM; IC50 (HuT78 [6]): 43 µM; AC50 (K562 [7]): > 100 µM; IC50 (K562 [8]): 50 µM
11 | COc1ccc(/C=C\c2ccc3c(c2)C(C)(C)CCC3(C)C)cc1N | 50 µM | 25 µM | AC50 (HL-60 [4]): 87 µM; IC50 (HL-60 [5]): 48 µM; IC50 (HuT78 [6]): 22 µM; AC50 (K562 [7]): 50 µM; IC50 (K562 [8]): 42 µM; AC50 (HuT78 [9]): 46 µM
12 | CC1(C)CCC(C)(C)c2cc(/C=C/c3ccc(N)cc3)ccc21 | 38 µM | 18 µM | –
13 | CC1(C)CCC(C)(C)c2cc(/C=C\c3cccc(N)c3)ccc21 | 10 µM | 10 µM | AC50 (HL-60 [4]): 25 µM; IC50 (HL-60 [5]): 15 µM; IC50 (HuT78 [6]): 5 µM; AC50 (K562 [7]): 27 µM; IC50 (K562 [8]): 13 µM; AC50 (HuT78 [9]): 10 µM
14 | C/C(=C/c1ccccc1C(=O)O)c1ccc2c(c1)C(C)(C)CCC2(C)C | 90 µM | 52 µM | –
15 | CC1(C)CCC(C)(C)c2cc(/C=C/c3cccc(N)c3)ccc21 | 40 µM | 20 µM | –
16 | C/C(=C\c1ccccc1C(=O)O)c1ccc2c(c1)C(C)(C)CCC2(C)C | > 100 µM | > 100 µM | –
17 | C/C(=C/c1cc(C(=O)O)no1)c1ccc2c(c1)C(C)(C)CCC2(C)C | 47 µM | 26 µM | –
18 | CC1=C(/C=C/C(C)=C/C=C/C(C)=C/C(=O)O)C(C)(C)CCC1 [TRETINOIN] | > 100 µM | – | –
